# Measured values from patent publication US20230312587A1, “PTERIDINONE COMPOUNDS AND USES THEREOF” (Vertex Pharmaceutical Incorporated, priority 2018, published 2023).
# Tests used:
# [1] = test system: HepG2 cells with CRISPR/Cas9 mediated WFS1 knockout (KO); assay: Calcium flux in parental HepG2 vs HepG2 WFS1 knockout cells; type: cell-based; conditions: 30 minutes after compound addition
# Excerpt: A double cleavage strategy was employed to remove large fragments from the WFS1 locus. Suitable target sites in WFS1 exon 8 were first selected using CRISPR design software to rank suitable target sites and computationally predict off-target sites for each intended target. Six top guide RNA sequences are identified and screened for activity using the Surveyor Mutation Detection Kit (Integrated DNA Technologies). Then, the best 2 guide RNAs were cloned into GeneArt OFP CRISPR nuclease vectors (Thermofisher, Cat #A21174) separately and co-transfected into HepG2 cells using nucleofection (4D Nucleofector X, Lonza). Cells were sorted by FACS 48 hrs later to enrich for the OFP positive cell population. The OFP positive cell population were plated into 96-well plates at 0.5-5 cells/well to isolate clonal cell lines. After allowing cells to expand for 2-3 weeks, plates were inspected for presence of colonies. When colonies became more than 70% confluent, they were dissociated with trypsin and were further expanded. Cell clones with homozygous double cleavage of WFS1 exon 8 were detected with PCR and confirmed with DNA sequencing.
# lung PDX models = assay: Response of lung PDX models with highest and lowest WFS1 gene expression; type: in vivo; conditions: 10 highest and 10 lowest WFS1 expressing lung PDX models
# Excerpt: Finally, an in vivo study was run to evaluate the relationship between WFS1 expression in patient derived xenografts (PDX). To do this, the 10 lung PDX models with the highest WFS1 gene expression and the 10 lung PDX models with the lowest WFS1 gene expression were selected from the Oncotest compendium.
# [2] = test system: ER stress marker proteins XBP1(s) and ATF4; assay: ER stress marker immunoblot in parental HepG2 vs WFS1 KO cells; type: cell-based; conditions: 6 hours, immunoblotting
# Excerpt: (§1) In contrast WFS1 depletion had no effect on thapsigargin induced changes in global gene expression (FIG. 7.)
# WFS1 = WFS1 (Homo sapiens (Human), UniProt O76024); assay: Binding of radiolabeled Compound 136 to cellular membrane extracts
# Sequence of WFS1 (O76024 whole entry): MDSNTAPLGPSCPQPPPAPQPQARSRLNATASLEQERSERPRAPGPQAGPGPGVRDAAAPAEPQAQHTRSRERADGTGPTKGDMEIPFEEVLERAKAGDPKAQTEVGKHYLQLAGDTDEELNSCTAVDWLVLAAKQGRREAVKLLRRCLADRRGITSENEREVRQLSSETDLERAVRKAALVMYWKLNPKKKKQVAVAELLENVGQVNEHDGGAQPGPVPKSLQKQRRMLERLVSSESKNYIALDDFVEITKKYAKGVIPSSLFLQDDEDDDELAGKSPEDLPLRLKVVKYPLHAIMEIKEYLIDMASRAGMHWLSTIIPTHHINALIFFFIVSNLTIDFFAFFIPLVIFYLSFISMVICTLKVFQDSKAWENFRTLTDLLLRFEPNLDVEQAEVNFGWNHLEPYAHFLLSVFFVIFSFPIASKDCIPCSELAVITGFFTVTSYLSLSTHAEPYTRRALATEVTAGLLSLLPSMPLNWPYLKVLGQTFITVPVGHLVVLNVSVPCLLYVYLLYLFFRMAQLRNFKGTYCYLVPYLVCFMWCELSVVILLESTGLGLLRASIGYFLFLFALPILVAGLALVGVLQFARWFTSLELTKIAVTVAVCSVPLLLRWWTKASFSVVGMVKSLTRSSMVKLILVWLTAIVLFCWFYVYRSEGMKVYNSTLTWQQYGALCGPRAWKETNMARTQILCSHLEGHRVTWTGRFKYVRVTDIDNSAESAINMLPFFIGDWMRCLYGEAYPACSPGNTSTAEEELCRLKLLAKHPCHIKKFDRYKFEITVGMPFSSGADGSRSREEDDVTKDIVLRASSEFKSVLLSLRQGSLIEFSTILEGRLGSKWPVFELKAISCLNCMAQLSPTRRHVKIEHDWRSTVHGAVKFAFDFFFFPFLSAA
# Procedure: Cell pellets were re-suspended in 15 times packed cellular volume in 4° C. hypotonic lysis buffer (10 mM HEPES, pH 7.5 containing 1×Protease inhibitor, 0.5 mM EDTA and 2 mM DTT). Re-suspended cells were homogenized with 6-8 strokes in a dounce homogenizer kept on ice. Lysates were centrifuged at 500×G for 15 minutes at 4° C. without brake to decelerate rotor. Following centrifugation, remove the supernatant to a fresh tube and place on ice (Supernatant 1). Repeat the above steps on the lysed cell pellet using 0.5 the original volume of hypotonic lysis buffer and remove the 500× G supernatant (Supernatant 2) and combine with Supernatant 1. Transfer the combined supernatants to a 45-Ti ultracentrifuge tube and centrifuge at 100,000× G for 30 minutes. Following ultracentrifugation, carefully remove the supernatant and discard. Resuspend the 100,000× G pellet in cold resuspension buffer (10 mM HEPES, pH 7.5, 300 mM NaCl containing 1× Protease inhibitor, 1× EDTA and 2 mM DTT). […]
# The binding affinities of compounds were determined by measuring the competitive displacement of a tritiated Compound 136 probe from purified HEK293 membranes over-expressing WFS-1. […]
# The binding affinity of radiolabeled Compound 136 to cell membranes derived from cells expressing different levels of WFS1 as determined by immunoblotting is shown in FIG. 8. […]
# [3] = test system: global gene expression in HepG2 cells; assay: Global gene expression changes in HepG2 vs WFS1 depleted cells; type: cell-based; conditions: HepG2, 6 hours of exposure
# Excerpt: as §1
melting point [°C],SMILES,effect of WFS1 depletion on ability to induce calcium flux [1],association between WFS1 gene expression and response in PDX models (lung PDX models),effect of WFS1 depletion on induction of XBP1(s) and ATF4 [2],binding to cellular membrane extracts which over-express WFS1 (WFS1; radiolabeled (tritiated) Compound 136),"Bmax vs level of WFS1 protein in cellular membrane (WFS1; radiolabeled Compound 136, cells expressing different levels of WFS1)",effect of WFS1 depletion on changes in global gene expression [3]
–,"Cc1nc(NCc2cnn(Cc3ccc(C(F)(F)F)nc3)c2)nc2c1NC(=O)[C@H](C)N2C [Compound 136, (7S)-4,7,8-trimethyl-2-(((1-((6-(trifluoromethyl)pyridin-3-yl)methyl)-111-pyrazol-4-yl)methyl)amino)-7,8-dihydropteridin-6(5H)-one]",completely eliminated,strong association,prevents the induction,specifically bind,correlates with the level of WFS1 protein,prevented Compound 136 from causing changes
136 to 138,"COc1c(F)cc(Cn2cc(CNc3nc(C)c4c(n3)N(C)[C@@H](C)C(=O)N4)cn2)cc1F [Compound 46, (7S)-2-(((1-(3,5-difluoro-4-methoxybenzyl)-1H-pyrazol-4-yl)methyl)amino)-4,7,8-trimethyl-7,8-dihydropteridin-6(5H)-one]",–,–,–,–,–,–
